Assay results: patent US3941763A, “PGlu-D-Met-Trp-Ser-Tyr-D-Ala-Leu-Arg-Pro-Gly-NH2 and intermediates” (American Home Products Corporation, priority 1975, dated 1976)
Non-standard residues stand in square brackets, D forms with d. Residues, ends and D or L forms follow the SMILES beside them. pGlu = O=C1CC[C@@H](C(=O)O)N1

Experiments:
[1] = system: rat pituitary tissue cultures; assay: Inhibition of LRH-induced release of LH in vitro in rat pituitary tissue cultures; type: cell-based
Method: LH concentration is determined by double-antibody radioimmunoassay.

[2] = system: LRH-induced release of LH; assay: Inhibition of LRH-induced release of LH in vivo in rats; parameters: species or system Male Sprague-Dawley rats
Method: Male Sprague-Dawley rats are divided into two groups of at least 5 animals in each group. One group receives the test compound. The other is the control group (no test compound). At zero time, the test group receives a 100-ng dose (subcutaneous) of D--Met^2 --D--Ala^6 --LRH in 0.2 ml. of physiological saline, while the control group receives a 0.2 ml. dose of physiological saline alone. At 20 minutes, blood samples are removed by cardiac puncture, and LH concentration is determined by double-antibody radioimmunoassay. At 45 minutes, the zero-time dose is repeated for each group of animals. At 50 minutes, the animals in each group are given a 200-ng dose (subcutaneous) of LRH in 0.2 ml. of physiological saline. A second blood sample is removed by cardiac puncture at 70 minutes and LH concentration is determined.

Structure (SMILES)	LH concentration ([1]; LRH 5 ng/ml + D-Met2-D-Ala6-LRH 10 ng/ml, double-antibody radioimmunoassay)	LH concentration ([1]; LRH 5 ng/ml + D-Met2-D-Ala6-LRH 100 ng/ml, double-antibody radioimmunoassay)	LH concentration ([1]; LRH 5 ng/ml + D-Met2-D-Ala6-LRH 1000 ng/ml, double-antibody radioimmunoassay)	LH Plasma Conc. ([2]; time 20 minutes, before LRH administration, 100 ng s.c. test compound at zero time)	LH Plasma Conc. ([2]; time 70 minutes, after LRH administration (200 ng s.c. at 50 min), 100 ng s.c. test compound at 0 and 45 min)	LH concentration ([1]; LRH 5 ng/ml alone, no test compound)
CSCC[C@@H](NC(=O)[C@@H]1CCC(=O)N1)C(=O)N[C@@H](Cc1c[nH]c2ccccc12)C(=O)N[C@@H](CO)C(=O)N[C@@H](Cc1ccc(O)cc1)C(=O)N[C@H](C)C(=O)N[C@@H](CC(C)C)C(=O)N[C@@H](CCCNC(=N)N)C(=O)N1CCC[C@H]1C(=O)NCC(=O)O [D--Met^2 --D--Ala^6 --LRH, L-Pyroglutamyl-D-methionyl-L-tryptophyl-L-seryl-L-tyrosyl-D-alanyl-L-leucyl-L-arginyl-L-prolyl-glycine] ([pGlu][dM]WSY[dA]LRPG-OH)	308 ± 2 ng/mL	143 ± 2 ng/mL	92 ± 2 ng/mL	10 ± 4 ng/mL	25 ± 5 ng/mL	
CC(C)C[C@H](NC(=O)CNC(=O)[C@H](Cc1ccc(O)cc1)NC(=O)[C@H](CO)NC(=O)[C@H](Cc1c[nH]c2ccccc12)NC(=O)[C@H](Cc1c[nH]cn1)NC(=O)[C@@H]1CCC(=O)N1)C(=O)N[C@@H](CCCNC(=N)N)C(=O)N1CCC[C@H]1C(=O)NCC(N)=O [LRH, L--pGlu--His--Trp--Ser--Tyr--Gly--Leu--Arg--Pro--Gly--NH2, reference compound]						282 ± 11 ng/mL
